Data published in US20250289789A1, “REVERSIBLE LYSINE COVALENT MODIFIERS OF CDK2 AND USES THEREOF” (Terremoto Biosciences, Inc., priority 2023, published 2025).

Legend:
Format in all cases: cell-based
[1] = target: T1, CDK1-NanoLuc fusion with CCNB1 in 293T or 293 cells (Homo sapiens, UniProt P06493); assay: NanoBRET Target Engagement (TE) Intracellular Kinase Assay, CDK1/CCNB1; settings: NanoBRET TE intracellular kinase assay, 2-hour incubation, read-out: NanoBRET-CDK1/B1 IC50
T1 construct: host or cells: 293T (ATCC CRL-3216) or 293 (ATCC CRL-1573)
T1 sequence (P06493 whole entry, the tested form may be a part): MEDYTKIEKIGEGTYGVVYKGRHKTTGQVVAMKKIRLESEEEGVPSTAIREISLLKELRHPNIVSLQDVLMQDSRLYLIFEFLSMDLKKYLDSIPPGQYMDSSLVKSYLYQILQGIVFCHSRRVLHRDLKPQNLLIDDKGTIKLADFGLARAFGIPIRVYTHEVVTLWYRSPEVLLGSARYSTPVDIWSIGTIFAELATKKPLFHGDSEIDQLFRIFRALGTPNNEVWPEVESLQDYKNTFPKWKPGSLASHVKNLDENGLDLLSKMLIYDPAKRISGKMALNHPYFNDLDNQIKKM
T1 sequence (P14635 whole entry partner, the tested form may be a part): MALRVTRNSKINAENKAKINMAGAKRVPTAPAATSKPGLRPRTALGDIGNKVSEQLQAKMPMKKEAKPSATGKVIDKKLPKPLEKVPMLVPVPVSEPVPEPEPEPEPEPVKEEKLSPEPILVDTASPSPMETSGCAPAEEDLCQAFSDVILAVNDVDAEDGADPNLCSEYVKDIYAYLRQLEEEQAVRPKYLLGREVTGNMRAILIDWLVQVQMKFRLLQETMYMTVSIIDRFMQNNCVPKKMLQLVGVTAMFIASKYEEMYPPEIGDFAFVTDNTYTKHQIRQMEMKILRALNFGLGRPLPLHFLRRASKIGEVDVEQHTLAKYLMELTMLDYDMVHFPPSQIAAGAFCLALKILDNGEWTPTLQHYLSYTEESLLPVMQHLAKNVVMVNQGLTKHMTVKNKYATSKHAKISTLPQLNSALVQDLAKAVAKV
Method: Inhibitory effects of compounds were measured in NanoBRET TE Intracellular Kinase Assay. 293T (ATCC; CRL-3216) or 293 (ATCC; CRL-1573) cell lines were maintained in 90% DMEM and 10% fetal bovine serum at 37° C., 5% CO2, and 95% relative humidity. Cells were trypsinized and resuspended in assay media (99% Opti-MEM I Reduced Serum Medium, no phenol red, and 1% fetal bovine serum). Cells were co-transfected with 1 μg/mL of CDK-NanoLuc Fusion Vector (Promega; NV2701 for CDK1, NV2781 for CDK2, NV2811 for CDK4, NV2841 for CDK6) and 1 μg/mL of the corresponding Cyclin Expression Vector (Promega; NV2601 for CCNB1, NV2641 for CCNE1, NV2621 for CCND1, NV2631 for CCND3) using FuGENE HD Transfection Reagent (Promega; E2311). 40 uL/well of cells with transfection mixture were seeded in 384-well plates at 1.25×10^5 to 2×10^5 cells/mL and incubated for 24 hours at 37° C., 5% CO2, and 95% relative humidity. On the next day, 100 nL of 100 μM NanoBRET Tracer K-10 (Promega; N2640) and 40 nL of 1000× test compounds prepared in DMSO were added to the cells in each well of 384-well plates for a 2-hour incubation at 37° C., 5% CO2, and 95% relative humidity. 20 uL/well of 3× Intracellular TE Nano-Glo Substrate/Inhibitor (Promega; N2162) were added to 384-well plates and incubated for 3 minutes at room temperature. NanoBRET signals (donor emission wavelength at 450 nm, acceptor emission wavelength at 610 nm) were measured using Envision plate reader (PerkinElmer). NanoBRET ratio was calculated by: BRET Ratio=raw signal for acceptor/raw signal for donor. Dose response curve normalized to DMSO control was plotted using four-parameter logistic model for IC50 calculation.

[2] = target: T2, CDK2-NanoLuc fusion with CCNE1 in 293T or 293 cells (Homo sapiens, UniProt P24941); assay: NanoBRET Target Engagement (TE) Intracellular Kinase Assay, CDK2/CCNE1; settings: NanoBRET TE intracellular kinase assay, 2-hour incubation, read-out: NanoBRET-CDK2/E1 IC50
T2 construct: host or cells: 293T (ATCC CRL-3216) or 293 (ATCC CRL-1573)

[3] = target: T3, CDK4-NanoLuc fusion with CCND1 in 293T or 293 cells (Homo sapiens, UniProt P11802); assay: NanoBRET Target Engagement (TE) Intracellular Kinase Assay, CDK4/CCND1; settings: NanoBRET TE intracellular kinase assay, 2-hour incubation, read-out: NanoBRET-CDK4/D1 IC50
T3 construct: host or cells: 293T (ATCC CRL-3216) or 293 (ATCC CRL-1573)
T3 sequence (P11802 whole entry, the tested form may be a part): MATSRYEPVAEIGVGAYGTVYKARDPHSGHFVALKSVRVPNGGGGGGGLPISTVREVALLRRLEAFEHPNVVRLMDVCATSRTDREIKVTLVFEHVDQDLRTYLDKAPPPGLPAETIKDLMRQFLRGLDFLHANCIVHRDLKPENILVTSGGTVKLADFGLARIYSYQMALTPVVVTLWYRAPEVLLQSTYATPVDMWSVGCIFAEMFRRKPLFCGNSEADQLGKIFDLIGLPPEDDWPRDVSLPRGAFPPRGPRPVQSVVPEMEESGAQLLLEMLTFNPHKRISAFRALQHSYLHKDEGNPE
T3 sequence (P24385 whole entry partner, the tested form may be a part): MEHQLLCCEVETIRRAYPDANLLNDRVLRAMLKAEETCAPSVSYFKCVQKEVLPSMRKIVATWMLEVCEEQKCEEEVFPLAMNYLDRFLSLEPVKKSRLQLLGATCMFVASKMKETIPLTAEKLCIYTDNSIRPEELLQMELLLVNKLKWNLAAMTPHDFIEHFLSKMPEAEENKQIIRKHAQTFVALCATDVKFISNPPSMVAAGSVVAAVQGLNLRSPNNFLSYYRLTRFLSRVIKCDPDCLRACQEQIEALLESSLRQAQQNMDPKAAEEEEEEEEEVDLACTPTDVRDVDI

[4] = system: Phospho-Rb Ser807/811 in OVCAR3 cells; assay: OVCAR3 Phospho-Rb Ser807/811 HTRF assay; settings: Homo sapiens, OVCAR-3, 1 h, OVCAR3 cells, Phospho-Rb Ser807/811 HTRF, 1 hour incubation; read-out: pRb-OVCAR3 IC50
Method: Cells were trypsinized and resuspended in 1 mM hydroxyurea (Sigma; H8627), 90% RPMI and 10% fetal bovine serum. […] Dose response curve normalized to DMSO control was plotted using four-parameter logistic model for IC50 calculation.

| SMILES | IC50 [1] [nM] | IC50 [2] [nM] | IC50 [3] [nM] | IC50 [4] [nM] |
| --- | --- | --- | --- | --- |
| COc1cc(O)c(C=O)c(OCC(=O)Nc2cc([C@H]3CC[C@@H](OC(=O)N4CC5CC(C4)O5)C3)[nH]n2)c1 [Compound 235] | 48.5 | 7.6 | > 10000 | 121 |
| CC(C)NC(=O)O[C@@H]1CC[C@H](c2cc(NC(=O)[C@H]3C[C@@H]3c3cccc(O)c3C=O)n[nH]2)C1 (single isomer, unassigned) [Compound 10] | 11.3 | 6.04 | 1000 | 67.6 |
| Cc1cc(C(=O)Nc2cc([C@H]3CC[C@@H](OC(=O)NC(C)C)C3)[nH]n2)cc(C=O)c1O [Compound 15, (1R,3S)-3-(3-(3-formyl-4-hydroxy-5-methylbenzamido)-1H-pyrazol-5-yl)cyclopentyl isopropylcarbamate trifluoroacetic acid] | 25.3 | 2.65 | 1820 | 112 |
| CC(=O)Nc1ccc(C(=O)Nc2cc([C@H]3CC[C@@H](OC(=O)NC(C)C)C3)[nH]n2)cc1C=O [Compound 38, (1R,3S)-3-[5-(4-acetamido-3-formylbenzamido)-2H-pyrazol-3-yl]cyclopentyl N-isopropylcarbamate] | 264 | 10.6 | 576 | 542 |
| CC(C)NC(=O)O[C@@H]1CC[C@H](c2cc(NC(=O)C3CCN(c4cccc(O)c4C=O)CC3)n[nH]2)C1 [Compound 92, (1R,3S)-3-{5-[1-(2-formyl-3-hydroxyphenyl)piperidine-4-amido]-2H-pyrazol-3-yl}cyclopentyl N-isopropylcarbamate] | 278 | 16.3 | 3840 | 2400 |
| CC(C)NC(=O)O[C@@H]1CC[C@H](c2cc(NC(=O)COc3ccc(F)c(O)c3C=O)n[nH]2)C1 [Compound 43, (1R,3S)-3-{5-[2-(4-fluoro-2-formyl-3-hydroxyphenoxy)acetamido]-2H-pyrazol-3-yl}cyclopentyl N-isopropylcarbamate; trifluoroacetic acid] | 51.2 | 27.2 | > 10000 | 212 |
| COc1cc(O)c(C=O)c(OCC(=O)Nc2cc([C@H]3C[C@@H](OC(=O)NC(C)C)C3)[nH]n2)c1 [Compound 113, (1s,3s)-3-(3-(2-(2-formyl-3-hydroxy-5-methoxyphenoxy)acetamido)-1H-pyrazol-5-yl)cyclobutyl isopropylcarbamate] | 11.4 | 4.13 | > 10000 | 61.6 |
| CC(C)NC(=O)O[C@@H]1CC[C@H](c2cc(NC(=O)COc3cc(OC(F)F)cc(O)c3C=O)n[nH]2)C1 [Compound 100, (1R,3S)-3-(5-{2-[5-(difluoromethoxy)-2-formyl-3-hydroxyphenoxy]acetamido}-2H-pyrazol-3-yl)cyclopentyl N-isopropylcarbamate] | 12.8 | 7.32 | 8710 | 120 |
| COc1cc(O)c(C=O)c(OCC(=O)Nc2cc([C@H]3CC[C@@H](OC(=O)N4CCOCC4)C3)[nH]n2)c1 [Compound 230] | 21 | 2.85 | > 10000 | 57.8 |
| CC(C)NC(=O)O[C@@H]1CC[C@H](c2cc(NC(=O)Cc3ccc(-c4cccc(O)c4C=O)cc3)n[nH]2)C1 [Compound 68, (1R,3S)-3-[5-(2-{2′-formyl-3′-hydroxy-[1,1′-biphenyl]-4-yl}acetamido)-2H-pyrazol-3-yl]cyclopentyl N-isopropylcarbamate; trifluoroacetic acid] | 39.2 | 5.56 | 1150 | 662 |
| COc1cc(O)c(C=O)c(OCC(=O)Nc2cc([C@H]3CC[C@@H](OC(=O)N4CCCO4)C3)[nH]n2)c1 [Compound 224] | 28.9 | 2.64 | > 10000 | 93.6 |
